This note sets out measurements from paper PMC3297008, “Novel Marine Phenazines as Potential Cancer Chemopreventive and Anti-Inflammatory Agents” (Marine Drugs, 2012).

pIC50: −log10 of the molar value.

Common to all, as to format: cell-based
One series concerns HL-60 cells. Nature of the series: NIM-DAPI cell cycle analysis / apoptosis of HL-60 cells. Conditions: 24 h incubation, various concentrations. As to the method:
Figure 3 NIM-DAPI cell cycle analysis of HL-60 cells. HL-60 cells (2 × 10^5 cells/well) were treated with different concentrations of the indicated compounds for 24 h. The media were discarded, and 4',6-diamidino-2-phenylindole solution (NIM-DAPI; Beckman Coulter) was added just before the measurement using a Cell Lab Quanta™ SC (Beckman Coulter) flow cytometer. NIM-DAPI-stained cells were analyzed after excitation. […] Results are representative of two experiments in triplicate.
HL-60 cells (2 × 10^5 cells/well) were treated with samples for 24 h. The media were discarded and nuclear isolation medium (4',6-diamidino-2-phenylindole, NIM-DAPI; Beckman Coulter) was added just before the measurement using a Cell Lab Quanta™ SC (Beckman Coulter) flow cytometer. NIM-DAPI-stained cells were analyzed after excitation.
HL-60 cells at a concentration of 2 × 10^6 cells/mL were incubated with testing phenazines at different concentrations for 24 h. The cells were fixed with 1% paraformaldehyde in PBS and treated with ethanol to permiabilize the cells. Positive and negative control cells were provided already fixed. The DNA labeling reaction was carried out at 22–24 °C overnight. This assay was run on a Cell Lab Quanta™ SC, Beckman Coulter flow cytometer equipped with a 488 nm Argon laser as the light source. Propidium Iodide (total cellular DNA) and Fluorescein (apoptotic cells) were used. Propidium Iodide (PI) fluoresces at about 623 nm and Fluorescein at 520 nm when excited at 488 nm. Following the manufacturer’s instructions, an APO-BRDU™ Kit (Phoenix Flow Systems, Inc.) with a two color TUNEL (Terminal deoxynucleotide transferase dUTP Nick End Labeling) capability for labeling DNA breaks and total cellular DNA to detect apoptotic cells was used.

The next series has as its system COX-2 mRNA expression. The experiment in a line: COX-2 mRNA expression in LPS-treated RAW 264.7 cells (real time quantitative PCR). Conditions: 50 µM. The text has this: Figure 2 Effect of phenazines on COX-2 (black) and iNOS (gray) mRNA expression in RAW 264.7 cells. Total RNA was isolated using the TRIZOL® Reagent method (Invitrogen) from RAW 264.7 cells (2 × 10^5 cells/well) after treatment with samples. cDNA was synthesized using the RT^2 First Strand Kit (C-03, SA Biosciences) protocol. cDNA was used for quantitative real time PCRs with fluorescent Power SyBR® Green PCR master mix (Applied Biosystems), employing GAPDH, iNOS, COX-2 specific primers, and a 7300 Real Time PCR System (Applied Biosystems). The results were derived from two independent RNA preparations employing identical triplicates in each analysis and quantitated using GAPDH as the internal control, following the manufacturer’s instructions. (A) GAPDH standard curve for quantitation of iNOS and COX-2 expression; (B) Levels of COX-2 (black) and iNOS (gray) mRNA expression. The concentration and duration of treatment had no significant effect on the viability of Raw 264.7 cells.
Total mRNA samples were isolated, and cDNA was amplified with specific primers, using GAPDH as housekeeping gene. LPS induced the expression of COX-2 and iNOS mRNA by approximately 11- and 24-fold, respectively. […]
RAW 264.7 cells (2 × 10^5 cells/well) were treated with test samples and total RNA was isolated with TRIZOL® Reagent (Invitrogen). […] The results were derived from two independent RNA preparations employing identical triplicates in each analysis and quantified using GAPDH as the internal control, following the manufacturer’s instructions. The fluorescence intensity (Rn) corresponding to the cycle of threshold value (Ct) is used to quantitate a given mRNA, employing the GAPDH standard curve (Figure 3A). The equation Y = −3.9408 X + 31.791 was used to quantify the relative mRNA content, where Y represents the number of cycles corresponding to the Ct (i.e., fluorescence intensity for a given mRNA species), and X represents the log copy number (C0) from which the relative content of mRNA was quantitated. […]

In the next series the test system is NFκB. Nature of the series: TNF-α-induced NFκB luciferase reporter assay in stably-transfected human embryonic kidney cells 293. As to conditions: for pIC50: human embryonic kidney cells 293 NFκB reporter, TNF-α 2 ng/mL, 6 h, read-out: IC50, inhibition of TNF-α-induced NFκB activity. As to the method: Activation of NFκB may promote cell proliferation or prevent cell death through apoptosis. Inhibition of NFκB signaling has potential application for the treatment or prevention of cancer; some inhibitors are known. […] […].
We employed human embryonic kidney cells 293 Panomic (Fremont, CA, USA) for monitoring changes occurring along the NFκB pathway. Stable constructed cells were seeded into sterile 96-well plate at 20 × 10^3 cells per well. Cells maintained in Dulbecco’s modified Eagle’s medium (DMEM) Invitrogen Co. (Carlsbad, CA, USA), supplemented with 10% FBS, 100 units/mL penicillin, 100 µg/mL streptomycin, 2 mM L-glutamine. After 48 h incubation, the medium was replaced and cells were treated with various concentration of test substances dissolved in PBS. TNF-α (Human, Recombinant, E. coli, Calbiochem, Gibbstown, NJ, USA) was used as an activator at a concentration of 2 ng/mL (0.14 nM). The plate was incubated for 6 h. Spent medium was discarded and the cells were washed once with PBS. Cells were lysed using 50 µL (for 96-well plate) Reporter Lysis Buffer from Promega, by incubating for 5 min on a shaker, and stored at −80 °C. The luciferase assay was performed using the Luc assay system from Promega (Madison, WI, USA). The gene product, luciferase enzyme, reacts with luciferase substrate, emitting light which was detected using a luminometer (LUMIstar Galaxy BMG). Data for NFκB constructs are expressed as IC50 values (i.e., concentration required to inhibit TNF-activated NFκB activity by 50%).

The subject of a further series is RAW 264.7 cells. Nature of the series: Cell viability (SRB) of RAW 264.7 cells in the NO assay. Conditions: 50 µM.

`CC(C)=CCn1c2ccc(Br)c(=O)c-2nc2ccccc21` [Phenazine 2]: the “accumulation of HL-60 cells in subG1 phase (apoptosis)” value (“accumulation of HL-60 cells” for short) in the series on HL-60 cells is reported as “accumulated in the subG1 phase of the cell cycle”. In addition, in the series on COX-2 mRNA expression, the “suppression of COX-2 mRNA expression” value was 50%. The pIC50 in the series with NFκB was 4.62. Further, the “NO % cell survival” value with RAW 264.7 cells came to 56.0 ± 5.1%.

Turning to `CC1=C(Cn2c3cccc(=O)c-3nc3ccccc32)CCC(C)(C)C1` [Lavanducyanin 3, lavanducyanin], the “accumulation of HL-60 cells” value in the series with HL-60 cells is “accumulated in the subG1 phase of the cell cycle”. In the series with COX-2 mRNA expression, the “suppression of COX-2 mRNA expression” value turned out to be 51%. For the same compound, the negative-log IC50 (pIC50) in the series with NFκB is 4.79. Besides, the “NO % cell survival” value in the series with RAW 264.7 cells is reported as 58.3 ± 4.6%.

As for `CC1=C(Cn2c3ccc(Br)c(=O)c-3nc3ccccc32)CCC(C)(C)C1` [Phenazine 1], in the series with HL-60 cells, the “accumulation of HL-60 cells” value is listed as “accumulated in the subG1 phase of the cell cycle”. Besides, in the series with COX-2 mRNA expression, the “suppression of COX-2 mRNA expression” value is reported as 40%. Moreover, the pIC50 with NFκB is 5.39. Also, the “enhancement of NFκB inhibitory activity by bromination at position-2” value in the series with NFκB (phenazine 1 compared with lavanducyanin) is listed as “approximately 4 fold”. Also, in the series on RAW 264.7 cells, the “NO % cell survival” value came to 68.9 ± 3.8%.
